Active and inactive are the calls of the source. The calls are words filed in the database; no cut-off is given here.
Legend:
[1] = tested on: THP-1; test: Antiproliferative activity against human THP-1 cells incubated for 72 hrs and measured by MTT assay; type: functional
[2] = tested on: Jurkat; test: Induction of apoptosis in human Jurkat cells assessed as decrease in mitochondrial membrane potential at 0.5 uM measured after 24 hrs by Rhodamine 123 fluorescence based assay; type: functional, cell-based
[3] = molecular target: Heat shock protein HSP 90-alpha (Homo sapiens, UniProt P07900); test: Inhibition of Hsp90alpha (unknown origin)
[4] = tested on: Jurkat; test: Antiproliferative activity against human Jurkat cells incubated for 72 hrs and measured by MTT assay; type: functional
[5] = tested on: UO-31; test: Antiproliferative activity against human UO-31 cells assessed as relative cell growth at 10 uM incubated for 48 hrs and measured by SRB assay; type: functional; settings: read-out: Activity
[6] = tested on: HeLa; test: Antiproliferative activity against human HeLa cells incubated for 72 hrs and measured by MTT assay; type: functional
[7] = tested on: SF-295; test: Antiproliferative activity against human SF-295 cells incubated for 48 hrs and measured by SRB assay; type: functional
[8] = tested on: COLO 205; test: Antiproliferative activity against human COLO 205 cells assessed as relative cell growth at 10 uM incubated for 48 hrs and measured by SRB assay; type: functional; settings: read-out: Activity
[9] = tested on: WM793; test: Antiproliferative activity against human WM793 cells incubated for 72 hrs and measured by MTT assay; type: functional
[10] = tested on: SF-539; test: Antiproliferative activity against human SF-539 cells assessed as relative cell growth at 10 uM incubated for 48 hrs and measured by SRB assay; type: functional; settings: read-out: Activity
[11] = tested on: SK-OV-3; test: Antiproliferative activity against human SK-OV-3 cells incubated for 72 hrs and measured by MTT assay; type: functional
[12] = tested on: UO-31; test: Antiproliferative activity against human UO-31 cells incubated for 48 hrs and measured by SRB assay; type: functional
[13] = tested on: SF-295; test: Antiproliferative activity against human SF-295 cells assessed as relative cell growth at 10 uM incubated for 48 hrs and measured by SRB assay; type: functional; settings: read-out: Activity
[14] = tested on: CCRF-CEM; test: Antiproliferative activity against human CCRF-CEM cells assessed as relative cell growth at 10 uM incubated for 48 hrs and measured by SRB assay; type: functional; settings: read-out: Activity
[15] = tested on: TK-10; test: Antiproliferative activity against human TK-10 cells incubated for 48 hrs and measured by SRB assay; type: functional
[16] = tested on: NCI-H460; test: Antiproliferative activity against human NCI-H460 cells incubated for 48 hrs and measured by SRB assay; type: functional, cell-based; settings: NCI-H460, 48 h
[17] = tested on: Jurkat; test: Induction of apoptosis in human Jurkat cells assessed as cell debris at 0.5 uM measured after 24 hrs by Hoechst 33342/propidium iodide staining based fluorescence microscopic analysis; type: functional
[18] = tested on: Jurkat; test: Induction of apoptosis in human Jurkat cells assessed as appearance of apoptotic bodies at 0.5 uM measured after 24 hrs by Hoechst 33342/propidium iodide staining based fluorescence microscopic analysis; type: functional, cell-based
[19] = tested on: HL-60(TB); test: Antiproliferative activity against human HL-60(TB) cells incubated for 48 hrs and measured by SRB assay; type: functional
[20] = tested on: HOP-92; test: Antiproliferative activity against human HOP-92 cells incubated for 48 hrs and measured by SRB assay; type: functional
[21] = tested on: BALB/3T3; test: Antiproliferative activity against mouse BALB/3T3 cells incubated for 72 hrs and measured by MTT assay; type: functional
[22] = tested on: MCF7; test: Antiproliferative activity against human MCF7 cells incubated for 72 hrs and measured by MTT assay; type: functional
[23] = tested on: Jurkat; test: Induction of DNA damage in human Jurkat cells assessed as olive tail moment at 0.5 uM measured after 24 hrs by comet assay; type: functional
[24] = tested on: HaCaT; test: Antiproliferative activity against human HaCaT cells incubated for 72 hrs and measured by MTT assay; type: functional
[25] = tested on: A498; test: Antiproliferative activity against human A498 cells assessed as relative cell growth at 10 uM incubated for 48 hrs and measured by SRB assay; type: functional; settings: read-out: Activity
[26] = tested on: NCI-H460; test: Antiproliferative activity against human NCI-H460 cells assessed as relative cell growth at 10 uM incubated for 48 hrs and measured by SRB assay; type: functional; settings: read-out: Activity
[27] = tested on: Jurkat; test: Induction of apoptosis in human Jurkat cells assessed as cellular membrane blebbing at 0.5 uM measured after 24 hrs by Hoechst 33342/propidium iodide staining based fluorescence microscopic analysis; type: functional, cell-based
[28] = tested on: Jurkat; test: Induction of DNA damage in human Jurkat cells assessed as tail DNA at 0.5 uM measured after 24 hrs by comet assay; type: functional
[29] = tested on: HEK293; test: Antiproliferative activity against human HEK293 cells incubated for 72 hrs and measured by MTT assay; type: functional
[30] = tested on: LOX IMVI; test: Antiproliferative activity against human LOX IMVI cells incubated for 48 hrs and measured by SRB assay; type: functional
[31] = tested on: HL-60(TB); test: Antiproliferative activity against human HL-60(TB) cells assessed as relative cell growth at 10 uM incubated for 48 hrs and measured by SRB assay; type: functional; settings: read-out: Activity
[32] = tested on: K562; test: Antiproliferative activity against human K562 cells incubated for 72 hrs and measured by MTT assay; type: functional
[33] = tested on: HCC 2998; test: Antiproliferative activity against human HCC 2998 cells assessed as relative cell growth at 10 uM incubated for 48 hrs and measured by SRB assay; type: functional; settings: read-out: Activity
[34] = tested on: KB 3-1; test: Antiproliferative activity against human KB 3-1 cells incubated for 72 hrs and measured by MTT assay; type: functional
[35] = tested on: K562; test: Antiproliferative activity against human K562 cells assessed as relative cell growth at 10 uM incubated for 48 hrs and measured by SRB assay; type: functional; settings: read-out: Activity
[36] = tested on: Malme-3M; test: Antiproliferative activity against human Malme-3M cells assessed as relative cell growth at 10 uM incubated for 48 hrs and measured by SRB assay; type: functional; settings: read-out: Activity
[37] = tested on: NCI-H522; test: Antiproliferative activity against human NCI-H522 cells incubated for 48 hrs and measured by SRB assay; type: functional
[38] = tested on: CAKI-1; test: Antiproliferative activity against human CAKI-1 cells assessed as relative cell growth at 10 uM incubated for 48 hrs and measured by SRB assay; type: functional; settings: read-out: Activity
[39] = tested on: Jurkat; test: Induction of DNA damage in human Jurkat cells assessed as DNA fragmentation at 0.5 uM measured by Diphenylamine assay; type: functional
[40] = tested on: Jurkat; test: Induction of apoptosis in human Jurkat cells assessed as fragmented DNA and nuclei at 0.5 uM measured after 24 hrs by Hoechst 33342/propidium iodide staining based fluorescence microscopic analysis; type: functional, cell-based
[41] = tested on: LOX IMVI; test: Antiproliferative activity against human LOX IMVI cells assessed as relative cell growth at 10 uM incubated for 48 hrs and measured by SRB assay; type: functional; settings: read-out: Activity
[42] = tested on: SR; test: Antiproliferative activity against human SR cells incubated for 48 hrs and measured by SRB assay; type: functional
[43] = tested on: RXF 393; test: Antiproliferative activity against human RXF 393 cells incubated for 48 hrs and measured by SRB assay; type: functional
[44] = tested on: MDA-MB-231; test: Antiproliferative activity against human MDA-MB-231 cells incubated for 72 hrs and measured by MTT assay; type: functional
[45] = tested on: HCT-116; test: Antiproliferative activity against human HCT-116 cells incubated for 72 hrs and measured by MTT assay; type: functional
[46] = tested on: DNA; test: Binding affinity to DNA (unknown origin) assessed as DNA intercalation at 1 to 100 uM by measuring amount of methyl green dye replaced from DNA-methyl green complex; type: nucleic-acid assay; settings: Homo sapiens; dose 1-100 µM
[47] = tested on: A549; test: Antiproliferative activity against human A549 cells incubated for 72 hrs and measured by MTT assay; type: functional
[48] = tested on: SR; test: Antiproliferative activity against human SR cells assessed as relative cell growth at 10 uM incubated for 48 hrs and measured by SRB assay; type: functional; settings: read-out: Activity
[49] = tested on: HCT-116; test: Antiproliferative activity against p53-deficient human HCT-116 cells incubated for 72 hrs and measured by MTT assay; type: functional
[50] = tested on: MOLT-4; test: Antiproliferative activity against human MOLT-4 cells assessed as relative cell growth at 10 uM incubated for 48 hrs and measured by SRB assay; type: functional; settings: read-out: Activity
[51] = tested on: MDA-MB-468; test: Antiproliferative activity against human MDA-MB-468 cells assessed as relative cell growth at 10 uM incubated for 48 hrs and measured by SRB assay; type: functional; settings: read-out: Activity
[52] = tested on: Jurkat; test: Induction of apoptosis in human Jurkat cells assessed as condensed chromatin at 0.5 uM measured after 24 hrs by Hoechst 33342/propidium iodide staining based fluorescence microscopic analysis; type: functional, cell-based
[53] = read-out: LC50 (the source's name)

## Cc1c(C(=O)Nc2ccc(SC#N)cc2)nnn1-c1ccc(C(C)C)cc1
[1]
  GI50: > 100 µM
[2]
  Activity: Active
[3]
  IC50: 0.023 µM
[4]
  GI50: 0.69 µM
[5]
  growth at 10 µM: -17.1%
[6]
  GI50: > 100 µM
[7]
  GI50: 2.71 µM
  TGI: 9.79 µM
[7]; [53]
  CC50: > 100 µM
[8]
  growth at 10 µM: 89.4%
[9]
  GI50: > 100 µM
[10]
  growth at 10 µM: 2.96%
[11]
  GI50: 10 µM
[12]
  GI50: 2.88 µM
  TGI: 15.5 µM
[12]; [53]
  CC50: > 100 µM
[13]
  growth at 10 µM: 4.89%
[14]
  growth at 10 µM: -13.3%
[15]
  GI50: 3.21 µM
  TGI: 9.94 µM
[15]; [53]
  CC50: > 100 µM
[16]
  IC50: 0.028 µM
[17]
  Activity: Active
[18]
  Activity: Active
[19]
  GI50: 2.8 µM
  TGI: 11.5 µM
[19]; [53]
  CC50: > 100 µM
[20]
  GI50: 2.85 µM
  TGI: 10.2 µM
[20]; [53]
  CC50: 62 µM
[21]
  GI50: > 100 µM
[22]
  GI50: > 100 µM
[23]
  Activity: 1.3
[24]
  GI50: > 100 µM
[25]
  growth at 10 µM: 93.6%
[26]
  growth at 10 µM: 13.7%
[27]
  Activity: Active
[28]
  Activity: 8.5%
[29]
  GI50: > 100 µM
[30]
  GI50: 0.15 µM
  TGI: 1.12 µM
[30]; [53]
  CC50: 4.48 µM
[31]
  growth at 10 µM: 8.6%
[32]
  GI50: 5.4 µM
[33]
  growth at 10 µM: 82.6%
[34]
  GI50: 7.4 µM
[35]
  growth at 10 µM: 10.3%
[36]
  growth at 10 µM: 95.1%
[37]
  GI50: 1.97 µM
  TGI: 5.81 µM
[37]; [53]
  CC50: > 100 µM
[38]
  growth at 10 µM: -53.2%
[39]
  Activity: 26.7%
[40]
  Activity: Active
[41]
  growth at 10 µM: -53.1%
[42]
  GI50: 1.77 µM
  TGI: 5.51 µM
[42]; [53]
  CC50: > 100 µM
[43]
  GI50: 4.27 µM
  TGI: 20.4 µM
[43]; [53]
  CC50: 69.5 µM
[44]
  GI50: > 100 µM
[45]
  GI50: > 100 µM
[46]
  Activity: 2.4%
[47]
  GI50: > 100 µM
[48]
  growth at 10 µM: -19.9%
[49]
  GI50: 8.4 µM
[50]
  growth at 10 µM: -17.6%
[51]
  growth at 10 µM: 80.1%
[52]
  Activity: Active

— ChEMBL document CHEMBL5108031, “Novel N-(4-thiocyanatophenyl)-1H-1,2,3-triazole-4-carboxamides exhibit selective cytotoxic activity at nanomolar doses towards human leukemic T-cells” (Eur J Med Chem, 2022)
